What is called IC50 is the point on the concentration scale where inhibition reaches its midpoint. A high value points to weaker potency.

The results in this text go back to patent publication US20250026754A1, “SMALL MOLECULE INHIBITORS OF UBIQUITIN SPECIFIC PROTEASE 1 (USP1) AND USES THEREOF” (INSILICO MEDICINE IP LIMITED, priority 2021, published 2025).

The test concerns MDA-MB-436 cells. Kind of test: MDA-MB-436 breast cancer cell proliferation assay (CellTiter-Glo). It is filed as cell-based. Conditions: Homo sapiens, 168 h, 7 days. As to the method: MDA-MB-436 cells were grown in Leibovitz's L-15 medium with 10 μg/ml insulin, 16 μg/ml glutathione, 10% FBS. Cells were passaged at subconfluence after trypsinization and maintained in incubators at 37° C. in a humidified atmosphere with 5% CO2.
Cell proliferation was determined using CellTiter-Glo® Luminescent Cell Viability Assay (Promega, #G7573). MDA-MB-436 cells were seeded in 384-well plates and allowed to attach for 24 h. Compounds were added into 384-well plate by ECHO, and incubated at 37 C° in a humidified atmosphere with 5% CO2. After 7 days, CellTiter-Glo was added into 384 well plates, contents were mixed on an orbital shaker at […] for 2 min before centrifuging the plate for 2 min at 1000 rpm. After incubation at RT for 30 min, luminescence was read on envision.
For orientation: Cellular ATP, detected with luciferase, serves as a proxy for viable cell number.

For the compound `COc1ncnc(C2CC2)c1-c1nn(C)c2c1CN(c1ccc(-n3nc(C(F)(F)F)cc3C)cn1)CC2` [Example 15, 3-(4-cyclopropyl-6-methoxypyrimidin-5-yl)-1-methyl-5-(5-(5-methyl-3-(trifluoromethyl)-1H-pyrazol-1-yl)pyridin-2-yl)-4,5,6,7-tetrahydro-1H-pyrazolo[4,3-c]pyridine], the IC50 is 50 to 1000 nM.
